The record followed here is patent publication US11035008B2, “Biomarkers for cancer” (BERGENBIO ASA, priority 2015, dated 2021).

Assay [1] relates to MOLM13 systemic xenograft. As to the kind of experiment: Leukemic (CD33/CD45-positive) cells in MOLM13 systemic xenograft model. The class given is in vivo, mice. As to conditions: 50 mg/kg for 4 days. The method, then: Material from an in vivo MOLM13 systemic model was also evaluated by flow cytometry. Expression of the previously evaluated biomarkers was examined in cells isolated from bone marrows and spleens of animals with systemic AML disease (MOLM13, inoculated for 7 days prior to treatment) treated with BGB324 at 50 mg/kg for 4 days. The spleens analysed were from the same study that was analysed by microarray, as mentioned above. The bone marrows were from an identical study that was done at a later time point to get more material for flow analyses.
Cells harvested from spleens, blood and bone marrows of the animals were stained with anti CD33 and CD45 antibodies, to determine if systemic disease was established. CD33/CD45-positive cells were found in spleens (around 10-15%), bone marrows (35-40%) and in the blood (2-6%) of the animals, confirming that the disease was established.

Another assay relates to Akt(S473). As to the kind of experiment: pAkt(S473) in blood of healthy volunteers treated ex vivo. The class given is cell-based, human. To be noted: blood of two healthy volunteers, 1 μM, 30 minutes ex vivo; signal very low, disregarded as false. The method, then:
Staining of Blood for Flow Cytometry, General Protocol: • Human blood from healthy donors was collected in the presence of sodium citrate and mixed with 20 volumes of pre-warmed BD phosflow lyse/fix buffer (diluted to 1× in destilled water), followed by incubation in 37° C. water bath for 10 minutes. Cells were spun at 500 g for 8 minutes and washed once with PBS. • Cells were permebilized by adding 70% MeOH followed by 30 min incubation on ice. Unless processed immediately, samples were at this point stored in MeOH at −20° C. for up to 4 weeks. • Staining of permeabilized cells: • Cells were spun at 600 g, washed twice and resuspended in IB. Cells were aliquoted into volums corresponding to 100 ul collected blood (before dilution), and stained as described above (section two in “Staining of cells for flow cytometry, general protocol”). • All washing and incubation steps were done on a spinning wheel or gentle shaker.
Blood samples from BGB324-treated individuals were not available, so BGB324-treatment was simulated by incubating fresh unfixed blood samples with 1 μM BGB324 for 30 minutes before fixation. Thereafter, samples were fixed, permebealized, and stained for flow with pAxl and pAkt antibodies to examine whether we could see a response to BGB324-treatment in these biomarkers (see FIG. 7). Phosphatase-treated cells were included as a negative staining control.

The test system of the next assay is total Axl. The experiment in a line: Total Axl by flow cytometry in MOLM13 cells (Example 2). As to conditions: MOLM13 starved, 3 μM, 40 minutes. The class given is cell-based, human. The method, then: Staining of Cells for Flow Cytometry, General Protocol: • Live cells were centrifuged at 300 G for 5 minutes, washed once with PBS and centrifuged again. Cells were then fixed in 4% PFA in PBS for 10 minutes at 37° C., and resuspended in PBS. Unless processed immediately, samples were at this point stored in PBS at 4° C. (up to three weeks) or at −80° C. (for long-term storage). If intracellular epitopes were stained, cells were permebealized in 90% MeOH for 30 minutes on ice. Unless processed immediately, samples were also be stored in 90% MeOH at −20° C. for up to two months. • Further staining procedure (permebealized or non-permebealized cells): • Cells were washed 1× in PBS and blocked in blocking buffer; either PBS+0.5% BSA or PBS+1:1000 Octagam (5 mg/ml) for 15 minutes at room temperature. Thereafter, cells were incubated with primary AB at the indicated dilutions in incubation buffer (IB, PBS+0.5% BSA) for 1 hour at room temperature. […] Cells were analyzed immediately, or stored for up to 24 hours at 4° C. before analysis. • Analysis of cells was done on a BD LSR Fortessa or a BD C6 Accuri flow cytometer, and further processing was done using FlowJo v.7.6. • All incubation steps (but not storage) were done on a spinning wheel or gentle shaker. […]
A general note: A flow cytometer gives signals particle by particle.

The test system of the next assay is Mv4-11 cells. As to the kind of experiment: IC50 of BGB324 by resazurin assay, Mv4-11. The class given is cell-based. To be noted: Homo sapiens, Mv4-11 (responder). From the text:
(§1) The diversity of AML cells and their responses was investigated using a panel of AML cell lines and assessing their responses after BGB324-treatment.

Another assay concerns pAkt (S473). As to the kind of experiment: pAkt(S473) in AML cell panel, short term treatment, flow cytometry. The class given is cell-based, human. As to conditions: 1 hour. The method, then:
(§2) Staining of Cells for Flow Cytometry, General Protocol: • Live cells were centrifuged at 300 G for 5 minutes, washed once with PBS and centrifuged again. Cells were then fixed in 4% PFA in PBS for 10 minutes at 37° C., and resuspended in PBS. Unless processed immediately, samples were at this point stored in PBS at 4° C. (up to three weeks) or at −80° C. (for long-term storage). If intracellular epitopes were stained, cells were permebealized in 90% MeOH for 30 minutes on ice. Unless processed immediately, samples were also be stored in 90% MeOH at −20° C. for up to two months. • Further staining procedure (permebealized or non-permebealized cells): • Cells were washed 1× in PBS and blocked in blocking buffer; either PBS+0.5% BSA or PBS+1:1000 Octagam (5 mg/ml) for 15 minutes at room temperature. Thereafter, cells were incubated with primary AB at the indicated dilutions in incubation buffer (IB, PBS+0.5% BSA) for 1 hour at room temperature. Cells were then washed 3× with IB and incubated with secondary AB (conjugated to a fluorescent flurophore) at 1:1000 dilution in IB for 30 minutes at room temperature. Finally, cells were washed 3× in IB and resuspended in PBS. Cells were analyzed immediately, or stored for up to 24 hours at 4° C. before analysis. • Analysis of cells was done on a BD LSR Fortessa or a BD C6 Accuri flow cytometer, and further processing was done using FlowJo v.7.6. • All incubation steps (but not storage) were done on a spinning wheel or gentle shaker.
as §1
When investigating phospho-markers, the cells were starved overnight in the appropriate growth medium containing 0.1% FBS, pre-treated with BGB324 at 0.5 and 1 μM for one hour, and stimulated with 10% FBS for 20 minutes (to induce phosphorylation, with BGB324 present). Cells were then fixed and stained for flow cytometric analyses.

A further assay relates to totPLCγ1. As to the kind of experiment: Total PLCγ1 in AML cell panel, long-term treatment, flow cytometry. It is filed as cell-based, human. The method, then:
as §2, §1
Long-term treatment was done in complete medium, without starvation. The responders were treated with 0.05, 0.1 or 0.3 μM BGB324, whereas the non-responders were treated with only a single dose of 2.5 μM BGB324. The cells were fixed after 24, 48 or 72 hours, and the samples were stored in 90% MeOH at −20° C. until all samples were harvested, and stained for flow at the same time.

`Nc1nc(Nc2ccc3c(c2)CC[C@@H](N2CCCC2)CC3)nn1-c1cc2c(nn1)-c1ccccc1CCC2` [BGB324, 1-(6,7-dihydro-5H-benzo[6,7]cyclohepta[1,2-c]pyridazin-3-yl)-N3-((7-(S)-pyrrolidin-1-yl)-6,7,8,9-tetrahydro-5H-benzo[7]annulene-2-yl)-1H-1,2,4-triazole-3,5-diamine]: the “percentage of leukemic cells vs. vehicle-treated mice” value in assay [1] (blood) is given as “significantly higher percentage of leukemic cells”; in assay [1] (bone marrows), “no significant differences”; in assay [1] (spleens), “no significant differences”. For the same compound, the pAkt entry in the assay on Akt(S473) was “very slight reduction in pAkt”; in the assay on pAkt (S473) (OCI-M1, 1 μM), “slight and significant inhibition of pAkt”. For the same compound, in the assay with total Axl, the “Total Axl expression” value was “did not change”. Half-maximal inhibition in the assay on Mv4-11 cells (IC50) was put at 140 nM. Also, the Akt phosphorylation entry in the assay with pAkt (S473) (Kasumi, 0.5 and 1 μM) is listed as “close to no effect”; with pAkt (S473) (MOLM13, 0.5 and 1 μM, 10% FBS stimulation), “inhibits Akt phosphorylation”; with pAkt (S473) (Mv4-11, 0.5 and 1 μM, not significant at 0.5 μM), “inhibits Akt phosphorylation”; with pAkt (S473) (OCI-M1, 0.5 and 1 μM) it was “close to no effect”. The PLCγ1 expression result in the assay on totPLCγ1 (Kasumi, 2.5 μM, 48 and 72 hours) is recorded as “significant increase of PLCγ1 expression”; in the assay on totPLCγ1 (OCI-AML5, 2.5 μM, only 72 hours), “significant increase of PLCγ1 expression”. The “total protein expression of PLCγ1” value is listed as “slight but significant reduction” with totPLCγ1 (MOLM13, 0.3 μM, 24 hours); “significant reduction” in the assay on totPLCγ1 (Mv4-11, 0.3 μM, 24 and 72 hours).
